Where “and” joins values, the source holds several entries; their conditions need not be identical. Identical values can stand only once. Inconclusive results and toxic doses are left out.
Test system: CD2F1 mice, L1210 leukemia ip, survival T/C
Test: NCI In Vivo Anticancer Drug Screen. Data for tumor model L1210 Leukemia (intraperitoneal) in CD2F1 (CDF1) mice
Conditions: higher = longer survival
In short: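 Implant tumor; dose compound or vehicle; measure endpoint in both groups; report treated divided by control.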

[1] = endpoint: mean survival time, dose: 50.0 mg/kg/injection, schedule: Q01DX009 (ip), vehicle: other
[2] = endpoint: mean survival time, dose: 100.0 mg/kg/injection, schedule: Q01DX009 (ip), vehicle: other
[3] = endpoint: mean survival time, dose: 200.0 mg/kg/injection, schedule: Q01DX009 (ip), vehicle: other
[4] = endpoint: mean survival time, dose: 400.0 mg/kg/injection, schedule: Q01DX009 (ip), vehicle: other
[5] = endpoint: mean survival time, dose: 100.0 mg/kg/injection, schedule: Q01DX001 (ip), vehicle: other
[6] = endpoint: mean survival time, dose: 100.0 mg/kg/injection, schedule: Q01DX009 (ip), vehicle: saline with Tween-80
[7] = endpoint: mean survival time, dose: 200.0 mg/kg/injection, schedule: Q01DX001 (ip), vehicle: other
[8] = endpoint: mean survival time, dose: 200.0 mg/kg/injection, schedule: Q01DX009 (ip), vehicle: saline with Tween-80
[9] = endpoint: mean survival time, dose: 400.0 mg/kg/injection, schedule: Q01DX001 (ip), vehicle: other
[10] = endpoint: mean survival time, dose: 400.0 mg/kg/injection, schedule: Q01DX009 (ip), vehicle: saline with Tween-80
[11] = endpoint: mean survival time, dose: 75.0 mg/kg/injection, schedule: Q01DX001 (ip), vehicle: saline
[12] = endpoint: mean survival time, dose: 150.0 mg/kg/injection, schedule: Q01DX001 (ip), vehicle: saline
[13] = endpoint: mean survival time, dose: 300.0 mg/kg/injection, schedule: Q01DX001 (ip), vehicle: saline
[14] = endpoint: mean survival time, dose: 100.0 mg/kg/injection, schedule: Q04DX003 (ip), vehicle: saline with Tween-80
[15] = endpoint: mean survival time, dose: 200.0 mg/kg/injection, schedule: Q04DX003 (ip), vehicle: saline with Tween-80
[16] = endpoint: mean survival time, dose: 400.0 mg/kg/injection, schedule: Q04DX003 (ip), vehicle: saline with Tween-80

CN(C)c1ccc(N2C(N)=NC(N)=NC2(C)C)cc1
T/C (endpoint: mean survival time, dose: 25.0 mg/kg/injection, schedule: Q01DX001 (ip), vehicle: saline): 101 % of control | T/C (endpoint: mean survival time, dose: 50.0 mg/kg/injection, schedule: Q01DX001 (ip), vehicle: saline): 101 % of control | T/C (endpoint: mean survival time, dose: 100.0 mg/kg/injection, schedule: Q01DX001 (ip), vehicle: saline): 98 % of control

Cc1ccccc1OCCO
T/C [1]: 100 % of control | T/C [2]: 116 % of control and 100 % of control | T/C [3]: 102 % of control and 103 % of control | T/C [4]: 100 % of control

CCOC(=O)n1cnc2ncnc(SC)c21
T/C (endpoint: mean survival time, dose: 50.0 mg/kg/injection, schedule: Q01DX001 (ip), vehicle: other): 95 % of control | T/C [1]: 102 % of control | T/C (endpoint: mean survival time, dose: 50.0 mg/kg/injection, schedule: Q01DX009 (ip), vehicle: saline with Tween-80): 109 % of control | T/C [5]: 106 % of control | T/C [2]: 102 % of control | T/C [6]: 101 % of control | T/C [7]: 102 % of control | T/C [3]: 123 % of control | T/C [8]: 91 % of control | T/C [9]: 108 % of control | T/C [4]: 121 % of control

O=C(Nc1ccc(Cl)cc1[N+](=O)[O-])c1ccc2ccccc2c1O
T/C (endpoint: mean survival time, dose: 100.0 mg/kg/injection, schedule: Q01DX001 (ip), vehicle: Klucel (hydroxypropylcellulose) (HPC)): 100 % of control | T/C (endpoint: mean survival time, dose: 200.0 mg/kg/injection, schedule: Q01DX001 (ip), vehicle: Klucel (hydroxypropylcellulose) (HPC)): 105 % of control | T/C (endpoint: mean survival time, dose: 400.0 mg/kg/injection, schedule: Q01DX001 (ip), vehicle: Klucel (hydroxypropylcellulose) (HPC)): 100 % of control

Cc1cc2ccc(Br)cc2[nH]1
T/C [5]: 104 % of control | T/C [7]: 101 % of control | T/C [9]: 98 % of control

O=C(O)C(F)(F)F
T/C [6]: 100 % of control | T/C (endpoint: mean survival time, dose: 100.0 mg/kg/injection, schedule: Q04DX003 (ip), vehicle: saline): 102 % of control | T/C [8]: 103 % of control | T/C (endpoint: mean survival time, dose: 200.0 mg/kg/injection, schedule: Q04DX003 (ip), vehicle: saline): 96 % of control | T/C [10]: 100 % of control | T/C (endpoint: mean survival time, dose: 400.0 mg/kg/injection, schedule: Q04DX003 (ip), vehicle: saline): 102 % of control

Cn1c(=O)c2c(nc(N3CCOCC3)n2CCCNCC(O)c2ccc(O)c(O)c2)n(C)c1=O (stereo unspecified)
T/C (endpoint: mean survival time, dose: 12.5 mg/kg/injection, schedule: Q01DX005 (ip), vehicle: water): 102 % of control | T/C (endpoint: mean survival time, dose: 25.0 mg/kg/injection, schedule: Q01DX005 (ip), vehicle: water): 96 % of control | T/C (endpoint: mean survival time, dose: 50.0 mg/kg/injection, schedule: Q01DX005 (ip), vehicle: water): 97 % of control | T/C (endpoint: mean survival time, dose: 100.0 mg/kg/injection, schedule: Q01DX005 (ip), vehicle: water): 96 % of control | T/C (endpoint: mean survival time, dose: 200.0 mg/kg/injection, schedule: Q01DX005 (ip), vehicle: water): 92 % of control

Cc1ccc(S(=O)(=O)OC2C(O)C(CO)OC2n2c(Br)c(C#N)c3c(N)ncnc32)cc1 (stereo unspecified)
T/C (endpoint: mean survival time, dose: 25.0 mg/kg/injection, schedule: Q01DX005 (ip), vehicle: saline with Tween-80): 93 % of control | T/C (endpoint: mean survival time, dose: 50.0 mg/kg/injection, schedule: Q01DX005 (ip), vehicle: saline with Tween-80): 102 % of control | T/C (endpoint: mean survival time, dose: 100.0 mg/kg/injection, schedule: Q01DX005 (ip), vehicle: saline with Tween-80): 100 % of control | T/C (endpoint: mean survival time, dose: 200.0 mg/kg/injection, schedule: Q01DX005 (ip), vehicle: saline with Tween-80): 96 % of control

CCCC1(CCC)c2ccccc2C(Cl)(CCl)c2ccccc21
T/C (endpoint: mean survival time, dose: 12.5 mg/kg/injection, schedule: Q01DX009 (ip), vehicle: other): 88 % of control | T/C (endpoint: mean survival time, dose: 25.0 mg/kg/injection, schedule: Q01DX009 (ip), vehicle: other): 94 % of control | T/C [1]: 92 % of control | T/C [2]: 94 % of control | T/C [3]: 86 % of control

ON=C(CCl)CCl
T/C (endpoint: mean survival time, dose: 1.56 mg/kg/injection, schedule: Q01DX009 (ip), vehicle: saline): 96 % of control | T/C (endpoint: mean survival time, dose: 3.12 mg/kg/injection, schedule: Q01DX009 (ip), vehicle: saline): 96 % of control | T/C (endpoint: mean survival time, dose: 6.25 mg/kg/injection, schedule: Q01DX009 (ip), vehicle: saline): 93 % of control

Cc1ccc(N/C=C\c2cc[n+](C)cc2)nc1
T/C [11]: 103 % of control | T/C [12]: 106 % of control | T/C [13]: 105 % of control

CCc1c(Cl)c(C)c(Cl)c(O)c1Cl
T/C [14]: 96 % of control | T/C [15]: 88 % of control

O=C(CC(Br)C(=O)c1ccccc1)c1ccccc1 (stereo unspecified)
T/C (endpoint: mean survival time, dose: 100.0 mg/kg/injection, schedule: Q04DX003 (ip), vehicle: saline sonified): 92 % of control | T/C (endpoint: mean survival time, dose: 200.0 mg/kg/injection, schedule: Q04DX003 (ip), vehicle: saline sonified): 94 % of control | T/C (endpoint: mean survival time, dose: 400.0 mg/kg/injection, schedule: Q04DX003 (ip), vehicle: saline sonified): 97 % of control

O=S(=O)(O)O.[NH-]C1CCCCCC1[NH-].[Pt+2] (stereo unspecified)
T/C (endpoint: mean survival time, dose: 1.56 mg/kg/injection, schedule: Q04DX003 (ip), vehicle: dextrose): 205 % of control | T/C (endpoint: mean survival time, dose: 3.13 mg/kg/injection, schedule: Q01DX001 (ip), vehicle: dextrose): 200 % of control and 204 % of control | T/C (endpoint: mean survival time, dose: 3.13 mg/kg/injection, schedule: Q04DX003 (ip), vehicle: dextrose): 188 % of control and 241 % of control and 103 % of control | T/C (endpoint: mean survival time, dose: 6.25 mg/kg/injection, schedule: Q01DX001 (ip), vehicle: dextrose): 170 % of control and 189 % of control | T/C (endpoint: mean survival time, dose: 12.5 mg/kg/injection, schedule: Q01DX001 (ip), vehicle: dextrose): 86 % of control | T/C (endpoint: mean survival time, dose: 12.5 mg/kg/injection, schedule: Q04DX003 (ip), vehicle: dextrose): 97 % of control

COC(=O)CCC(=O)N1C=Cc2ccccc2C1C#N (stereo unspecified)
T/C [6]: 98 % of control | T/C [14]: 95 % of control | T/C [8]: 102 % of control | T/C [15]: 95 % of control | T/C [10]: 102 % of control | T/C [16]: 90 % of control

OCC(O)C(O)C(O)C(/C=N/Nc1ccccc1)=N/Nc1ccccc1 (stereo unspecified)
T/C [11]: 95 % of control | T/C [12]: 95 % of control | T/C [13]: 95 % of control

CCOC(=O)C(N)CSC(=O)NC (stereo unspecified)
T/C (endpoint: mean survival time, dose: 12.5 mg/kg/injection, schedule: Q01DX009 (ip), vehicle: saline): 95 % of control | T/C (endpoint: mean survival time, dose: 25.0 mg/kg/injection, schedule: Q01DX009 (ip), vehicle: saline): 103 % of control and 107 % of control | T/C (endpoint: mean survival time, dose: 50.0 mg/kg/injection, schedule: Q01DX009 (ip), vehicle: saline): 116 % of control and 97 % of control | T/C (endpoint: mean survival time, dose: 100.0 mg/kg/injection, schedule: Q01DX009 (ip), vehicle: saline): 123 % of control and 105 % of control | T/C (endpoint: mean survival time, dose: 200.0 mg/kg/injection, schedule: Q01DX009 (ip), vehicle: saline): 116 % of control and 111 % of control | T/C (endpoint: mean survival time, dose: 800.0 mg/kg/injection, schedule: Q01DX009 (ip), vehicle: saline): 94 % of control

Cc1ccc(OCCOc2ccc(C(=O)O)cc2)cc1
T/C (endpoint: mean survival time, dose: 7.5 mg/kg/injection, schedule: Q01DX009 (ip), vehicle: Klucel (hydroxypropylcellulose) (HPC)): 100 % of control | T/C (endpoint: mean survival time, dose: 15.0 mg/kg/injection, schedule: Q01DX009 (ip), vehicle: Klucel (hydroxypropylcellulose) (HPC)): 98 % of control | T/C (endpoint: mean survival time, dose: 30.0 mg/kg/injection, schedule: Q01DX009 (ip), vehicle: Klucel (hydroxypropylcellulose) (HPC)): 96 % of control

O=C1NCC1c1ccccc1 (stereo unspecified)
T/C (endpoint: median survival time, dose: 25.0 mg/kg/injection, schedule: Q04DX003 (ip), vehicle: saline with Tween-80): 90 % of control | T/C (endpoint: median survival time, dose: 50.0 mg/kg/injection, schedule: Q04DX003 (ip), vehicle: saline with Tween-80): 90 % of control | T/C (endpoint: median survival time, dose: 100.0 mg/kg/injection, schedule: Q04DX003 (ip), vehicle: saline with Tween-80): 100 % of control | T/C (endpoint: median survival time, dose: 200.0 mg/kg/injection, schedule: Q04DX003 (ip), vehicle: saline with Tween-80): 90 % of control

CN1C2CCC1C(CO)C(O)C2 (stereo unspecified)
T/C (endpoint: mean survival time, dose: 100.0 mg/kg/injection, schedule: Q04DX002 (ip), vehicle: saline): 105 % of control | T/C (endpoint: mean survival time, dose: 200.0 mg/kg/injection, schedule: Q04DX002 (ip), vehicle: saline): 94 % of control | T/C (endpoint: mean survival time, dose: 400.0 mg/kg/injection, schedule: Q04DX002 (ip), vehicle: saline): 97 % of control

Cc1cc(Cl)ccc1[NH-].Cc1cc(Cl)ccc1[NH-].[Cl][Pt+2][Cl]
T/C (endpoint: mean survival time, dose: 25.0 mg/kg/injection, schedule: Q04DX003 (ip), vehicle: saline with Tween-80): 100 % of control | T/C (endpoint: mean survival time, dose: 50.0 mg/kg/injection, schedule: Q04DX003 (ip), vehicle: saline with Tween-80): 94 % of control | T/C [14]: 94 % of control | T/C [15]: 94 % of control | T/C [16]: 97 % of control
